For 20 molecules, IC50 and Ki results are on record in patent publication US20230159510A1, “NOVEL PRMT5 INHIBITORS” (AMGEN INC., priority 2020, published 2023).

Molecules are shown by their SMILES. A value given as a limit tells only on which side of the number the result lay.

One assay has as its system HCT116 MTAP null cells. Briefly: HCT116 proliferation assay, MTAP null cells (CellTiter-Glo, 6 days). The class given is cell-based. The conditions noted are these: HCT116-MTAP null, 144 h, read-out: Protif_ HCT116-MTAP null IC50. An outline of the steps:
(§1)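 RPMI 1640/10% FBS; overnight attachment at 37° C, 5% CO2; 8–9-pt 1:3 titration, top 1 or 10 µM; DMSO ctrl; luminescence readout.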

The next assay deals with HCT116 WT cells. Briefly: HCT116 proliferation assay, WT cells (CellTiter-Glo, 6 days). The class given is cell-based. The conditions noted are these: Homo sapiens, HCT-116, 144 h, read-out: Prolif_HCT116-WT IC50. The procedure, abridged: as §1
(Cellular ATP, detected with luciferase, serves as a proxy for viable cell number.)

The target of another assay is PRMT5/MEP50 (Homo sapiens, UniProt O14744). In words: MTase-Glo methyl transferase assay, Method A (Histone H4 peptide, 1 µM MTA, 24 h pre-incubation). Type of assay: biochemical. More on the design: made in house. The conditions noted are these: read-out: PRMT5 MTase Glo Ki (nM, Meth. A). The procedure, abridged:
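PRMT5/MEP50 (10 nM) pre-incubated 24 h with compound, 5 µM SAM and 1 µM MTA, then reaction started with 1 µM Histone H4 (1-21) peptide and run 2 h at room temperature in Tris pH 8.0 buffer. SAH formed detected by MTase-Glo luminescence; IC50 and KI from dose-response curves.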

Sequence of PRMT5/MEP50 (O14744 whole entry): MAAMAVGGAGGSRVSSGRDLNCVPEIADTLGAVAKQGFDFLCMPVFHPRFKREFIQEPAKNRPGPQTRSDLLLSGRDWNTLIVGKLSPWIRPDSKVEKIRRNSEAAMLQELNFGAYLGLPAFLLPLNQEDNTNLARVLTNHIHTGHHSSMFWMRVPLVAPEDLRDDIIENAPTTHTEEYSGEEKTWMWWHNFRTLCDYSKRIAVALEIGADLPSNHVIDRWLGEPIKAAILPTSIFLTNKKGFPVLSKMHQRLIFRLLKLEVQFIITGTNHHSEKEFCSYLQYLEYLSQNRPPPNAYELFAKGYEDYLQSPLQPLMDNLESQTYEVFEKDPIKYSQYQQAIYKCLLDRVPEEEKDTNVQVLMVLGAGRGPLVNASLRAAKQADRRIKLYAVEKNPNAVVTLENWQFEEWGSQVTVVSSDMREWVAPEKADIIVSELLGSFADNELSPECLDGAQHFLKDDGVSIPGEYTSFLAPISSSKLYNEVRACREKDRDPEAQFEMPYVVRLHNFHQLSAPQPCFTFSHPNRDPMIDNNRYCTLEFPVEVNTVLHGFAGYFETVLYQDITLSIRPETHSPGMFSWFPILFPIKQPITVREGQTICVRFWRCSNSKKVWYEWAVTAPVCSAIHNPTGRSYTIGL
Sequence of PRMT5/MEP50 (Q9BQA1 whole entry partner): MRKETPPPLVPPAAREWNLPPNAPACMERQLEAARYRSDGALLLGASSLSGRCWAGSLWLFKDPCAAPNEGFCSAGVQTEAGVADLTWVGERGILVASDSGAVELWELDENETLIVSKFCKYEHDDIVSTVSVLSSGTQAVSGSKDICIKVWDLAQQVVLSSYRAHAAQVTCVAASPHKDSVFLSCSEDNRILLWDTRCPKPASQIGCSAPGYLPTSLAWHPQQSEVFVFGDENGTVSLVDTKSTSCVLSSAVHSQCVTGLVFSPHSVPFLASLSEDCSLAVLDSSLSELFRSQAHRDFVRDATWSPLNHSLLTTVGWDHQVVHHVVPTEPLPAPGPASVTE

For `Cc1cc2cc(C(=O)N(Cc3ccc(C(N)=O)cc3)Cc3ccc(C(F)(F)F)cn3)ccc2nc1N` [Example 355, 2-amino-N-(4-carbamoylbenzyl)-3-methyl-N-((5-(trifluoromethyl)-2-pyridinyl)methyl)-6-quinolinecarboxamide], the half-inhibitory concentration (IC50) with HCT116 MTAP null cells amounted to 159 nM; with HCT116 WT cells, 3350 nM. Besides, at PRMT5/MEP50, the inhibitory constant (Ki) was found to be 0.2 nM.

For the molecule `Cc1cc2cc(C(=O)N(Cc3ccc(C#N)cn3)[C@H](C)c3ncccn3)ccc2nc1N` [Example 502, (R)-2-amino-N-((5-cyanopyridin-2-yl)methyl)-3-methyl-N-(1-(pyrimidin-2-yl)ethyl)quinoline-6-carboxamide], the half-maximal inhibitory concentration (IC50) stood at 109 nM in the assay with HCT116 MTAP null cells and 3260 nM in the assay on HCT116 WT cells. Besides, on PRMT5/MEP50, the Ki is 0.06 nM.

In the case of `Cc1cc2cc(C(=O)N(Cc3cnc(C(F)(F)F)cn3)[C@H](C)c3ccc(F)cn3)ccc2nc1N` (single isomer, unassigned) [Example 483], the half-maximal inhibitory concentration (IC50) was 515 nM in the assay with HCT116 MTAP null cells and more than 10000 nM with HCT116 WT cells. For the same molecule, the Ki on PRMT5/MEP50 came out at 1.02 nM.

In the case of `COc1ccc(CN(C(=O)c2ccc3nc(N)c(Br)cc3c2)[C@H](C)c2ncccn2)nn1` [Example 411, 2-amino-3-bromo-N-((6-methoxy-3-pyridazinyl)methyl)-N-((1R)-1-(2-pyrimidinyl)ethyl)-6-quinolinecarboxamide], the values for the IC50 in the assay with HCT116 MTAP null cells and with HCT116 WT cells were 182 nM and more than 10000 nM, respectively. Also, the Ki on PRMT5/MEP50 was 0.22 nM.

For `C[C@H](c1ncccn1)N(Cc1ccc(Br)nn1)C(=O)c1ccc2nc(N)c(Cl)cc2c1` [Example 348, 2-amino-N-((6-bromo-3-pyridazinyl)methyl)-3-chloro-N-((1R)-1-(2-pyrimidinyl)ethyl)-6-quinolinecarboxamide], the half-inhibitory concentration (IC50) with HCT116 MTAP null cells is 413 nM; in the assay with HCT116 WT cells, more than 10000 nM. For the same molecule, the Ki at PRMT5/MEP50 was 0.73 nM.

On to `Cc1cc2cc(C(=O)N(Cc3ccc(N4CCOCC4)nn3)[C@H](C)c3ncccn3)ccc2nc1N` [Example 555, (R)-2-amino-3-methyl-N-((6-morpholinopyridazin-3-yl)methyl)-N-(1-(pyrimidin-2-yl)ethyl)quinoline-6-carboxamide], for which the half-maximal inhibitory concentration (IC50) in the assay with HCT116 MTAP null cells amounted to 125 nM; with HCT116 WT cells, 3820 nM. In addition, the Ki at PRMT5/MEP50 amounted to 0.07 nM.

For the molecule `Cc1cc2cc(C(=O)N(Cc3ccc(Cl)cn3)CC(C)C)ccc2nc1N` [Example 330, 2-amino-N-((5-chloro-2-pyridinyl)methyl)-3-methyl-N-(2-methylpropyl)-6-quinolinecarboxamide], the concentration for half-maximal inhibition (IC50) was 628 nM in the assay with HCT116 MTAP null cells and 8570 nM in the assay with HCT116 WT cells. Besides, the Ki at PRMT5/MEP50 was determined as 1.87 nM.

On to `Cc1cc2cc(C(=O)N(Cc3ccc(C(F)(F)F)cn3)[C@@H]3CCCn4ncnc43)ccc2nc1N` (single isomer, unassigned) [Example 464], for which the 50% inhibitory concentration (IC50) was 71 nM in the assay on HCT116 MTAP null cells and 1510 nM in the assay on HCT116 WT cells. Also, the Ki on PRMT5/MEP50 came to 0.1 nM.

In the case of `Cc1cc2cc(C(=O)N(Cc3ccc(Cl)cn3)[C@H](C)c3ncccn3)ccc2nc1N` [Example 504, 2-amino-N-((5-chloro-2-pyridinyl)methyl)-3-methyl-N-((1R)-1-(2-pyrimidinyl)ethyl)-6-quinolinecarboxamide], the figures for the concentration for half-maximal inhibition (IC50) in the assay on HCT116 MTAP null cells and in the assay with HCT116 WT cells were 49 nM and 1360 nM, respectively. On PRMT5/MEP50, the inhibitory constant (Ki) is 0.05 nM.

Regarding `Cc1cc2cc(C(=O)N(Cc3ccc(C(F)(F)F)cn3)Cc3ncc(Cl)cc3F)ccc2nc1N` [Example 304, 2-amino-N-((5-chloro-3-fluoro-2-pyridinyl)methyl)-3-methyl-N-((5-(trifluoromethyl)-2-pyridinyl)methyl)-6-quinolinecarboxamide], the IC50 with HCT116 MTAP null cells stood at 182 nM; in the assay on HCT116 WT cells, 4100 nM. The inhibition constant (Ki) on PRMT5/MEP50 worked out at 0.11 nM.

Turning to `CCOc1ccc(CN(C(=O)c2cnc3nc(N)c(Br)cc3c2)[C@H](C)c2ncccn2)nn1` [Example 382, 7-amino-6-bromo-N-((6-ethoxy-3-pyridazinyl)methyl)-N-((1R)-1-(2-pyrimidinyl)ethyl)-1,8-naphthyridine-3-carboxamide], the concentration for half-maximal inhibition (IC50) in the assay on HCT116 MTAP null cells worked out at 278 nM; with HCT116 WT cells, 9680 nM. Also, the Ki on PRMT5/MEP50 is 0.16 nM.

Take `Cc1cc2cc(C(=O)N(Cc3cccnc3)Cc3ccc(C(F)(F)F)cn3)ccc2nc1N` [Example 301, 2-amino-3-methyl-N-(3-pyridinylmethyl)-N-((5-(trifluoromethyl)-2-pyridinyl)methyl)-6-quinolinecarboxamide]: the IC50 in the assay with HCT116 MTAP null cells is 872 nM; with HCT116 WT cells, more than 10000 nM. For the same molecule, the Ki on PRMT5/MEP50 is 1.22 nM.

Turning to `Cc1cc2cc(C(=O)N(Cc3ccc(C(F)(F)F)cn3)Cc3cccc4[nH]ncc34)ccc2nc1N` [Example 371, 2-amino-N-(1H-indazol-4-ylmethyl)-3-methyl-N-((5-(trifluoromethyl)-2-pyridinyl)methyl)-6-quinolinecarboxamide], the IC50 was 69 nM with HCT116 MTAP null cells and 1390 nM in the assay with HCT116 WT cells. Also, the inhibitory constant (Ki) at PRMT5/MEP50 was found to be 0.01 nM.

`Cc1cc2cc(C(=O)N(Cc3ccc(C(F)(F)F)nn3)[C@@H]3CCc4cccnc43)ccc2nc1N` [Example 395, 2-amino-N-((7R)-6,7-dihydro-5H-cyclopenta[b]pyridin-7-yl)-3-methyl-N-((6-(trifluoromethyl)-3-pyridazinyl)methyl)-6-quinolinecarboxamide]: the values for the IC50 in the assay with HCT116 MTAP null cells and in the assay with HCT116 WT cells were 82 nM and 2370 nM, respectively. Further, the Ki at PRMT5/MEP50 was found to be 0.16 nM.

As for `Cc1cc2cc(C(=O)N(Cc3ccc(C(F)(F)F)nn3)[C@H](C)c3ncccc3Cl)ccc2nc1N` (single isomer, unassigned) [Example 525], the values for the half-inhibitory concentration (IC50) in the assay on HCT116 MTAP null cells and in the assay with HCT116 WT cells were 598 nM and 7610 nM, respectively. Besides, on PRMT5/MEP50, the Ki stood at 0.23 nM.

In the case of `Cc1cc2cc(C(=O)N(Cc3ccc(C(F)(F)F)cn3)Cc3cnccn3)ccc2nc1N` [Example 336, 2-amino-3-methyl-N-(2-pyrazinylmethyl)-N-((5-(trifluoromethyl)-2-pyridinyl)methyl)-6-quinolinecarboxamide], the half-inhibitory concentration (IC50) with HCT116 MTAP null cells was 400 nM; in the assay with HCT116 WT cells it was more than 10000 nM. The Ki on PRMT5/MEP50 worked out at 0.47 nM.

As for `C[C@H](c1ncccn1)N(Cc1ccc(C#N)cn1)C(=O)c1ccc2nc(N)c(Cl)cc2c1` [Example 408, 2-amino-3-chloro-N-((5-cyano-2-pyridinyl)methyl)-N-((1R)-1-(2-pyrimidinyl)ethyl)-6-quinolinecarboxamide], the results for the IC50 in the assay with HCT116 MTAP null cells and with HCT116 WT cells were 597 nM and more than 10000 nM, respectively. For the same molecule, the inhibition constant (Ki) at PRMT5/MEP50 was 0.13 nM.

`Cc1cc2cc(C(=O)N(Cc3ccc(Cl)cn3)[C@H](C)c3ncccc3F)ccc2nc1N` [Example 401, 2-amino-N-((5-chloro-2-pyridinyl)methyl)-N-((1R)-1-(3-fluoro-2-pyridinyl)ethyl)-3-methyl-6-quinolinecarboxamide]: the 50% inhibitory concentration (IC50) amounted to 51 nM in the assay with HCT116 MTAP null cells and 1570 nM in the assay on HCT116 WT cells. For the same molecule, on PRMT5/MEP50, the Ki was found to be 0.08 nM.

As for `Cc1cc2cc(C(=O)N(Cc3ccc(S(C)(=O)=O)cn3)[C@H](C)c3ncccc3F)ccc2nc1N` [Example 541, (R)-2-amino-N-((5-(methylsulfonyl)pyridin-2-yl)methyl)-N-(1-(3-fluoropyridin-2-yl)ethyl)-3-methylquinoline-6-carboxamide], the half-maximal inhibitory concentration (IC50) in the assay with HCT116 MTAP null cells was determined as 198 nM; with HCT116 WT cells, 4140 nM. The Ki on PRMT5/MEP50 amounted to 0.13 nM.

With `Cc1cc2cc(C(=O)N(Cc3ccc(C(F)(F)F)cn3)[C@H](C)c3cnccn3)ccc2nc1N` (single isomer, unassigned) [Example 482], the IC50 with HCT116 MTAP null cells came to 106 nM; in the assay on HCT116 WT cells, 4320 nM. The inhibition constant Ki on PRMT5/MEP50 turned out to be 0.1 nM.

By IC50 is commonly meant the concentration that inhibits the measured activity by half. By Ki is commonly meant the equilibrium dissociation constant of an inhibitor or competing ligand from its target.
